From US7582678B2, “Use of branched-chain fatty acids and derivatives thereof for the treatment of pain” (D-PHARM Limited, priority 1998, dated 2009)
Marks after values point to notes of the source that are not given here.

Test system: Male CD-1 mice
Experiment: Tail flick assay (radiated heat, acute pain) in mice;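 note: infrared heat aimed at the tail of restrained mice, time until tail flick recorded as mean of 2-3 readings, 4-8 animals per group, compared with vehicle-treated animals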
Details: for size of analgesic effect, ranking among tested compounds: tail flick, Table 1
[1] = I.P., 50 mg/kg, 15 min post-injection
[2] = I.P., 50 mg/kg, 45 min post-injection
[3] = I.P., 50 mg/kg, 75 min post-injection
[4] = I.P., 50 mg/kg, 105 min post-injection
[5] = I.P., 100 mg/kg, 15 min post-injection
[6] = I.P., 100 mg/kg, 45 min post-injection
[7] = I.P., 100 mg/kg, 75 min post-injection
[8] = I.P., 100 mg/kg, 105 min post-injection
[9] = I.P., 200 mg/kg, 15 min post-injection
[10] = I.P., 200 mg/kg, 45 min post-injection
[11] = I.P., 200 mg/kg, 75 min post-injection
[12] = I.P., 200 mg/kg, 105 min post-injection
[13] = I.P., 200 mg/kg, 135 min post-injection
[14] = I.P., 50 mg/kg, 135 min post-injection
[15] = I.P., 50 mg/kg, 285 min post-injection
[16] = I.P., 50 mg/kg, 345 min post-injection
[17] = I.P., 100 mg/kg, 135 min post-injection
[18] = I.P., 100 mg/kg, 285 min post-injection
[19] = I.P., 100 mg/kg, 345 min post-injection

| Structure (SMILES) | Withdrawal latency (% of vehicle) [1] | Withdrawal latency (% of vehicle) [2] | Withdrawal latency (% of vehicle) [3] | Withdrawal latency (% of vehicle) [4] | Withdrawal latency (% of vehicle) [5] | Withdrawal latency (% of vehicle) [6] | Withdrawal latency (% of vehicle) [7] | Withdrawal latency (% of vehicle) [8] | Withdrawal latency (% of vehicle) [9] | Withdrawal latency (% of vehicle) [10] | Withdrawal latency (% of vehicle) [12] | Withdrawal latency (% of vehicle) [14] | Withdrawal latency (% of vehicle) [15] | Withdrawal latency (% of vehicle) [16] | Withdrawal latency (% of vehicle) [17] | also measured |
| --- | --- | --- | --- | --- | --- | --- | --- | --- | --- | --- | --- | --- | --- | --- | --- | --- |
| CN1CC[C@]23c4c5ccc(O)c4O[C@H]2[C@@H](O)C=C[C@H]3[C@H]1C5 [Morphine, reference compound] |  |  |  |  |  |  |  |  |  |  |  |  |  |  |  | Withdrawal latency (% of vehicle) (I.P., 1 mg/kg, 15 min post-injection): 97% of vehicle; Withdrawal latency (% of vehicle) (I.P., 1 mg/kg, 45 min post-injection): 136% of vehicle; Withdrawal latency (% of vehicle) (I.P., 1 mg/kg, 75 min post-injection): 207% of vehicle; Withdrawal latency (% of vehicle) (I.P., 1 mg/kg, 105 min post-injection): 179% of vehicle; Withdrawal latency (% of vehicle) (I.P., 1 mg/kg, 255 min post-injection): 142%** % of vehicle; Withdrawal latency (% of vehicle) (I.P., 10 mg/kg, 15 min post-injection): 139% of vehicle; Withdrawal latency (% of vehicle) (I.P., 10 mg/kg, 45 min post-injection): 171% of vehicle; Withdrawal latency (% of vehicle) (I.P., 10 mg/kg, 75 min post-injection): 284% of vehicle; Withdrawal latency (% of vehicle) (I.P., 10 mg/kg, 105 min post-injection): 238% of vehicle; Withdrawal latency (% of vehicle) (I.P., 10 mg/kg, 255 min post-injection): 151%** % of vehicle |
| CCCCCC(CCCCC)C(=O)O [M(5,5)—Na, 2-Pentylheptanoic acid] | 115% of vehicle | 124% of vehicle | 117% of vehicle | 134% of vehicle | 137% of vehicle | 164% of vehicle | 164% of vehicle | 193% of vehicle |  |  |  |  |  |  |  |  |
| CCCCCCCC(CCCCCCC)C(=O)O [M(7,7), 2-Heptylnonanoic acid] |  |  |  |  |  |  |  |  | 93% of vehicle | 124% of vehicle | 149% of vehicle |  |  |  |  | Withdrawal latency (% of vehicle) [11]: 117% of vehicle; Withdrawal latency (% of vehicle) [13]: 124% of vehicle |
| CCCCCCCCCCCCCCCCCC(=O)OC[C@H](COP(=O)([O-])OCC[N+](C)(C)C)OC(=O)C(CCC)CCCCCCCCCC (stereo partly shown) [DP-M(3,10), 1-O-stearoyl-2-propyldodecanoyl-sn-glycero-3-phosphocholine] | 123% of vehicle | 119% of vehicle | 113% of vehicle | 123% of vehicle |  |  |  |  |  |  |  | 123% of vehicle | 129% of vehicle | 107% of vehicle |  |  |
| CCCCCCCCCCC(CCC)C(=O)O (stereo not shown) [M(3,10)—Na, 2-Propyldodecanoic acid] | 151% of vehicle | 138% of vehicle | 128% of vehicle | 123% of vehicle | 181% of vehicle | 153% of vehicle | 121% of vehicle | 143% of vehicle | 158% of vehicle | 220% of vehicle | 141% of vehicle | 102% of vehicle |  |  | 148% of vehicle | Withdrawal latency (% of vehicle) [11]: 216% of vehicle; Withdrawal latency (% of vehicle) [13]: 175% of vehicle |
| CCCCCCCC(CCC)C(=O)O (stereo not shown) [M(3,7), 2-Propylnonanoic acid] |  |  |  |  |  |  |  |  |  |  |  |  |  |  |  | Withdrawal latency (% of vehicle) (I.P., 150 mg/kg, 15 min post-injection): 157% of vehicle; Withdrawal latency (% of vehicle) (I.P., 150 mg/kg, 45 min post-injection): 137% of vehicle; Withdrawal latency (% of vehicle) (I.P., 150 mg/kg, 75 min post-injection): 106% of vehicle; Withdrawal latency (% of vehicle) (I.P., 150 mg/kg, 105 min post-injection): 131% of vehicle |
| CCCCCCCCCCCCCCCCCC(=O)OC[C@H](COP(=O)([O-])OCC[N+](C)(C)C)OC(=O)C(CCC)CCCCCCC (stereo partly shown) [DP-M(3,7), 1-O-stearoyl-2-propylnonayl-sn-glycero-3-phosphocholine] | 132% of vehicle | 123% of vehicle | 119% of vehicle | 102% of vehicle | 127% of vehicle | 156% of vehicle | 124% of vehicle | 114% of vehicle |  |  |  | 112% of vehicle | 119% of vehicle | 114% of vehicle | 126% of vehicle | Withdrawal latency (% of vehicle) [18]: 127% of vehicle; Withdrawal latency (% of vehicle) [19]: 125% of vehicle |
| CCCCCCCCCCCCCCCCCC(=O)OC[C@H](COP(=O)([O-])OCC[N+](C)(C)C)OC(=O)C(CCCCC)CCCCC [DP-M(5,5), 1-O-stearoyl-2-pentylheptonayl-sn-glycero-3-phosphocholine] | 113% of vehicle | 107% of vehicle | 118% of vehicle | 142% of vehicle | 148% of vehicle | 143% of vehicle | 148% of vehicle | 162% of vehicle |  |  |  | 152% of vehicle | 121% of vehicle | 124% of vehicle | 171% of vehicle | Withdrawal latency (% of vehicle) [18]: 155% of vehicle; Withdrawal latency (% of vehicle) [19]: 124% of vehicle; dose dependence of analgesic effect (i.p. 25, 50, 100 mg/kg (FIG. 1)): dose dependent; size of analgesic effect, ranking among tested compounds: largest analgesic effects |
| CCCCCCCC(CCCCCCC)OP(=O)(O)O [(7,7)-PO4, 8-Pentadecanyl Phosphate] |  |  |  |  |  |  |  |  |  |  |  |  |  |  |  | Withdrawal latency (% of vehicle) (P.O., 200 mg/kg, 45 min post-administration): 93% of vehicle; Withdrawal latency (% of vehicle) (P.O., 200 mg/kg, 75 min post-administration): 94% of vehicle; Withdrawal latency (% of vehicle) (P.O., 200 mg/kg, 105 min post-administration): 124% of vehicle; Withdrawal latency (% of vehicle) (P.O., 200 mg/kg, 135 min post-administration): 133% of vehicle; Withdrawal latency (% of vehicle) (P.O., 200 mg/kg, 285 min post-administration): 162% of vehicle; Withdrawal latency (% of vehicle) (P.O., 200 mg/kg, 345 min post-administration): 129% of vehicle |
| CCCCCCCCCCC(CCC)C(=O)O (stereo not shown) [M(3,10), 2-Propyldodecanoic acid] |  |  |  |  | 142% of vehicle | 155% of vehicle | 131% of vehicle | 156% of vehicle | 186% of vehicle | 210% of vehicle | 183% of vehicle |  |  |  | 123% of vehicle | size of analgesic effect, ranking among tested compounds: largest analgesic effects |
